In assay [1] the test system is class-III β-tubulin. Briefly: ELISA protein level. In kind it is cell-based, human. Conditions: 48 h. As to the method: Dissection of the compound’s proapoptotic activity was proceeded through gene expression analysis for key genes, controlling apoptosis pathway, as well as protein level determination. Following 8b treatment for 48 h, alterations within MDA-MB-231/breast cancer cell expression of Bcl-2, Bax, caspase-3, -8, and -9 genes, as well as cytochrome c and class-III β-tubulin proteins levels were determined using real-time polymerase chain reaction (RT-PCR) or ELISA technique, respectively. Typically, Bcl-2, Bax, caspases, and cytochrome c proteins contributes within the regulation of apoptotic signaling. Acting as apoptotic activator (Bax) or inhibitor (Bcl-2), the Bcl-2 family proteins play their significant role in apoptosis. The caspases family are cysteine proteases being classified as either executioners; caspase-3, -6, or -7 or initiators; caspase-8 and -9 [36]. Regrading caspase-8, its activation is proceeded through extrinsic death-receptor dependent apoptotic pathway, while, caspase-9 activation is within the event of intrinsic mitochondrial cytochrome c leakage. Additionally, participation of activated caspase-3 is to be essential for caspase-8 activation. […]
(In an ELISA, binding on a coated surface is turned into a signal by an enzyme label.)

Assay [2] deals with MDA-MB-231/breast cancer cells. Briefly: Morphological assessment. In kind it is cell-based, human. Conditions: 0.1-100 µM, 48 h, phase-contrast microscope. As to the method:
The impact of 8b on cancerous cellular morphology was evaluated over different concentrations following 48 h exposure time. In MDA-MB-231/breast cancer cells, normal membrane integrity and control group nucleus morphology was depicted for cells within vehicle negative control group (Figure 4A). […] At 100 µM concentration, the cell number became highly declined and great loss of cellular polyhedral shape was observed as cells acquired the tentacled spindle-shaped morphology (Figure 4E). These morphological changes were more drastic with 8b as compared to 5-FU for similar concentrations (100 µM) (Figure 4F).
The impact of this tested final compounds on the morphology of treated MDA-MB-231/breast cancer cell line was investigated, through planting cells within 6-well plates and subsequently incubated with 0.1, 1, 10, 100 µM of 8b […]. Variations within the cells’ morphology were identified via Olympus®-CKX53 Inverted Metallurgical light microscope (Olympus^TM, Center Valley, PA, USA), snapped by Olympus® Digital Camera, and analyzed by OLYMPUS® Stream image analysis software.

For `CCCc1ccc(-c2nn(-c3ccccc3)cc2C=NNC(=O)c2cc3ccccc3[nH]2)cc1` [Compound 8b, N′-((1-phenyl-3-(4-propylphenyl)-1H-pyrazol-4-yl)methylene)-1H-indole-2-carbohydrazide], in assay [1] (13 μM, MDA-MB-231, control 0.73 ng/mL), the “class-III β-tubulin level” value stood at 0.23 ng/mL. In assay [1] (Homo sapiens, MDA-MB-231, vs control), the inhibition (usually the drop in the measured response relative to a control, in per cent) at 13 µM stood at 68.4%. For the same molecule, the cell morphology alterations entry in assay [2] is “significant cell morphology alteration, intercellular space dilatation, and cellular shrinkage”.

The values above are taken from paper PMC7912796, “Design, Synthesis, Anticancer Activity, and Solid Lipid Nanoparticle Formulation of Indole- and Benzimidazole-Based Compounds as Pro-Apoptotic Agents Targeting Bcl-2 Protein” (Pharmaceuticals, 2021).
